Measured values from the supplement of paper PMC4862054.

How the values were obtained:
[1] = system: CAL-120; experiment: normalised viability (% of control), CellTiter-Blue; higher = more viable cells (about 100 = DMSO control); conditions: incubation time: 72 h
How it was run: (§1)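 Normalised viability is given for a single listed concentration of the series. In 384-well plates, breast cancer cell lines were incubated 72 h with compound, then read with CellTiter-Blue (2 h, 37 °C) at 560/590 nm. Per-plate scaling set vehicle to 100 and a positive kill control to 0, with Z'-factor quality control.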

[2] = system: SK-BR-3; experiment: as above; conditions: incubation time: 72 h
How it was run: as §1

[3] = system: MDA-MB-468; experiment: as above; conditions: incubation time: 72 h
How it was run: as §1

[4] = system: HCC1599; experiment: as above; conditions: incubation time: 72 h
How it was run: as §1

[5] = system: MFM-223; experiment: as above; conditions: incubation time: 72 h
How it was run: as §1

[6] = system: Hs578T; experiment: as above; conditions: incubation time: 72 h
How it was run: as §1

[7] = system: HDQ-P1; experiment: as above; conditions: incubation time: 72 h
How it was run: as §1

[8] = system: MDA-MB-231; experiment: as above; conditions: incubation time: 72 h
How it was run: as §1

[9] = system: CAL-85-1; experiment: as above; conditions: incubation time: 72 h
How it was run: as §1

[10] = system: BT-474; experiment: as above; conditions: incubation time: 72 h
How it was run: as §1

[11] = system: CAL-148; experiment: as above; conditions: incubation time: 72 h
How it was run: as §1

[12] = system: HCC1937; experiment: as above; conditions: incubation time: 72 h
How it was run: as §1

[13] = system: MDA-MB-453; experiment: as above; conditions: incubation time: 72 h
How it was run: as §1

[14] = system: MDA-MB-436; experiment: as above; conditions: incubation time: 72 h
How it was run: as §1

[15] = system: BT-549; experiment: as above; conditions: incubation time: 72 h
How it was run: as §1

[16] = system: CAL-51; experiment: as above; conditions: incubation time: 72 h
How it was run: as §1

[17] = system: HCC1143; experiment: as above; conditions: incubation time: 72 h
How it was run: as §1

[18] = system: DU-4475; experiment: as above; conditions: incubation time: 72 h
How it was run: as §1

[19] = system: CAL-120; experiment: normalised viability (% of control), CellTiter-Blue; higher = more viable cells (about 100 = DMSO control); conditions: 100 nM; incubation time: 72 h
Experimental: (§2)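 DSRT, CellTiter-Blue viability, 72 h incubation. Signal is normalised to DMSO and benzethonium chloride controls. Value is the normalised response at dose 3.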

[20] = system: SK-BR-3; experiment: as above; conditions: 100 nM; incubation time: 72 h
Experimental: as §2

[21] = system: MDA-MB-468; experiment: as above; conditions: 100 nM; incubation time: 72 h
Experimental: as §2

[22] = system: HCC1599; experiment: as above; conditions: 100 nM; incubation time: 72 h
Experimental: as §2

[23] = system: MFM-223; experiment: as above; conditions: 100 nM; incubation time: 72 h
Experimental: as §2

[24] = system: Hs578T; experiment: as above; conditions: 100 nM; incubation time: 72 h
Experimental: as §2

[25] = system: HDQ-P1; experiment: as above; conditions: 10 nM; incubation time: 72 h
Experimental: as §2

[26] = system: MDA-MB-231; experiment: as above; conditions: 100 nM; incubation time: 72 h
Experimental: as §2

[27] = system: CAL-85-1; experiment: as above; conditions: 10 nM; incubation time: 72 h
Experimental: as §2

[28] = system: BT-474; experiment: as above; conditions: 100 nM; incubation time: 72 h
Experimental: as §2

[29] = system: CAL-148; experiment: as above; conditions: 10 nM; incubation time: 72 h
Experimental: as §2

[30] = system: HCC1937; experiment: as above; conditions: 100 nM; incubation time: 72 h
Experimental: as §2

[31] = system: MDA-MB-453; experiment: as above; conditions: 10 nM; incubation time: 72 h
Experimental: as §2

[32] = system: MDA-MB-436; experiment: as above; conditions: 100 nM; incubation time: 72 h
Experimental: as §2

[33] = system: BT-549; experiment: as above; conditions: 100 nM; incubation time: 72 h
Experimental: as §2

[34] = system: CAL-51; experiment: as above; conditions: 10 nM; incubation time: 72 h
Experimental: as §2

[35] = system: HCC1143; experiment: as above; conditions: 100 nM; incubation time: 72 h
Experimental: as §2

[36] = system: DU-4475; experiment: as above; conditions: 10 nM; incubation time: 72 h
Experimental: as §2

[37] = system: CAL-120; experiment: normalised viability (% of control), CellTiter-Blue; higher = more viable cells (100 = DMSO, 0 = benzethonium chloride kill control); conditions: incubation time: 72 h
Experimental: (§3)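 DSRT, CellTiter-Blue viability, 72 h incubation. Signal is normalised to DMSO and benzethonium chloride controls. Value is the normalised response at dose 1.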

[38] = system: SK-BR-3; experiment: as above; conditions: incubation time: 72 h
Experimental: as §3

[39] = system: MDA-MB-468; experiment: as above; conditions: incubation time: 72 h
Experimental: as §3

[40] = system: HCC1599; experiment: as above; conditions: incubation time: 72 h
Experimental: as §3

[41] = system: MFM-223; experiment: as above; conditions: incubation time: 72 h
Experimental: as §3

[42] = system: Hs578T; experiment: as above; conditions: incubation time: 72 h
Experimental: as §3

[43] = system: HDQ-P1; experiment: as above; conditions: incubation time: 72 h
Experimental: as §3

[44] = system: MDA-MB-231; experiment: as above; conditions: incubation time: 72 h
Experimental: as §3

[45] = system: CAL-85-1; experiment: as above; conditions: incubation time: 72 h
Experimental: as §3

[46] = system: BT-474; experiment: as above; conditions: incubation time: 72 h
Experimental: as §3

[47] = system: CAL-148; experiment: as above; conditions: incubation time: 72 h
Experimental: as §3

[48] = system: HCC1937; experiment: as above; conditions: incubation time: 72 h
Experimental: as §3

[49] = system: MDA-MB-453; experiment: as above; conditions: incubation time: 72 h
Experimental: as §3

[50] = system: MDA-MB-436; experiment: as above; conditions: incubation time: 72 h
Experimental: as §3

[51] = system: BT-549; experiment: as above; conditions: incubation time: 72 h
Experimental: as §3

[52] = system: CAL-51; experiment: as above; conditions: incubation time: 72 h
Experimental: as §3

[53] = system: HCC1143; experiment: as above; conditions: incubation time: 72 h
Experimental: as §3

[54] = system: DU-4475; experiment: as above; conditions: incubation time: 72 h
Experimental: as §3

C[C@@H](CN1CC(=O)NC(=O)C1)N1CC(=O)NC(=O)C1 [Dexrazoxane]
normalised viability ([1]; 10 nM): 90.1%
normalised viability ([1]; 1000 nM): 100%
normalised viability ([1]; 10000 nM): 100%
normalised viability ([2]; 10 nM): 93.8%
normalised viability ([2]; 1000 nM): 105%
normalised viability ([2]; 10000 nM): 103%
normalised viability ([3]; 10 nM): 101%
normalised viability ([3]; 1000 nM): 97.4%
normalised viability ([3]; 10000 nM): 100%
normalised viability ([4]; 10 nM): 123%
normalised viability ([4]; 1000 nM): 93.3%
normalised viability ([4]; 10000 nM): 115%
normalised viability ([5]; 10 nM): 95.2%
normalised viability ([5]; 1000 nM): 91.2%
normalised viability ([5]; 10000 nM): 93%
normalised viability ([6]; 10 nM): 87.7%
normalised viability ([6]; 1000 nM): 88.8%
normalised viability ([6]; 10000 nM): 92.1%
normalised viability ([7]; 3 nM): 108%
normalised viability ([7]; 30 nM): 107%
normalised viability ([7]; 100 nM): 44.3%
normalised viability ([8]; 10 nM): 95%
normalised viability ([8]; 1000 nM): 96.6%
normalised viability ([8]; 10000 nM): 107%
normalised viability ([9]; 3 nM): 98.4%
normalised viability ([9]; 30 nM): 93.7%
normalised viability ([9]; 100 nM): 96.7%
normalised viability ([10]; 10 nM): 100%
normalised viability ([10]; 1000 nM): 101%
normalised viability ([10]; 10000 nM): 114%
normalised viability ([11]; 3 nM): 84.4%
normalised viability ([11]; 30 nM): 92.6%
normalised viability ([11]; 100 nM): 91.5%
normalised viability ([12]; 10 nM): 99.1%
normalised viability ([12]; 1000 nM): 82%
normalised viability ([12]; 10000 nM): 92.3%
normalised viability ([13]; 3 nM): 104%
normalised viability ([13]; 30 nM): 103%
normalised viability ([13]; 100 nM): 101%
normalised viability ([14]; 10 nM): 91.8%
normalised viability ([14]; 1000 nM): 95.8%
normalised viability ([14]; 10000 nM): 95.6%
normalised viability ([15]; 10 nM): 87.2%
normalised viability ([15]; 1000 nM): 79.2%
normalised viability ([15]; 10000 nM): 76.8%
normalised viability ([16]; 3 nM): 93.9%
normalised viability ([16]; 30 nM): 96.1%
normalised viability ([16]; 100 nM): 92.8%
normalised viability ([17]; 10 nM): 88%
normalised viability ([17]; 1000 nM): 94.5%
normalised viability ([17]; 10000 nM): 99.6%
normalised viability ([18]; 3 nM): 103%
normalised viability ([18]; 30 nM): 97.4%
normalised viability ([18]; 100 nM): 104%
normalised viability [19]: 91.8%
normalised viability [20]: 61%
normalised viability [21]: 109%
normalised viability [22]: 124%
normalised viability [23]: 93.3%
normalised viability [24]: 89%
normalised viability [25]: 91%
normalised viability [26]: 96.6%
normalised viability [27]: 110%
normalised viability [28]: 107%
normalised viability [29]: 85%
normalised viability [30]: 103%
normalised viability [31]: 94.6%
normalised viability [32]: 101%
normalised viability [33]: 78.5%
normalised viability [34]: 95.6%
normalised viability [35]: 88.6%
normalised viability [36]: 110%

N[C@@H](Cc1ccc(N(CCCl)CCCl)cc1)C(=O)O [Melphalan] (0.099 nM)
normalised viability [37]: 82.9%
normalised viability [38]: 94%
normalised viability [39]: 102%
normalised viability [40]: 96.1%
normalised viability [41]: 94.3%
normalised viability [42]: 93.8%
normalised viability [43]: 107%
normalised viability [44]: 95.1%
normalised viability [45]: 85.7%
normalised viability [46]: 85.2%
normalised viability [47]: 112%
normalised viability [48]: 87.2%
normalised viability [49]: 97.8%
normalised viability [50]: 89.8%
normalised viability [51]: 107%
normalised viability [52]: 100%
normalised viability [53]: 84.7%
normalised viability [54]: 99.8%

Cc1c(C(=O)Nc2ccc(N3C[C@@H](C)O[C@@H](C)C3)nc2)cccc1-c1ccc(OC(F)(F)F)cc1 [NVP-LDE225] (1 nM)
normalised viability [37]: 93.1%
normalised viability [38]: 91.5%
normalised viability [39]: 129%
normalised viability [40]: 85.8%
normalised viability [41]: 96.4%
normalised viability [42]: 111%
normalised viability [43]: 70.9%
normalised viability [44]: 98%
normalised viability [45]: 99.5%
normalised viability [46]: 109%
normalised viability [47]: 92.9%
normalised viability [48]: 96.4%
normalised viability [49]: 108%
normalised viability [50]: 79.5%
normalised viability [51]: 87.2%
normalised viability [52]: 103%
normalised viability [53]: 105%
normalised viability [54]: 102%
